This is an account of results in patent publication US20240217948A1, “CRYSTALLINE FORMS OF A LPA1 ANTAGONIST” (Bristol-Myers Squibb Company, priority 2022, published 2024).

Each structure is given as a SMILES string.

Data set [1] is described as follows: Moisture sorption isotherms. The format is physicochemical. Particulars: 25° C., 4-95% RH (FIG. 4). As to the method: Moisture sorption isotherms were collected in a TA Instrument VTI-SA+ Vapor Sorption Analyzer using approximately 270 mg of sample in a 250 μL ceramic pan. The sample was dried at 30° C. until the loss rate of 0.005 wt %/min was obtained for 10 minutes. The sample was tested at 25° C. and 4, 5, 15, 25, 35, 45, 50, 65, 75, 85, and 95% RH. Equilibration at each RH was reached when the rate of 0.01 wt %/min for 35 minutes was achieved or a maximum of 600 minutes.

The subject of data set [2] is idiopathic pulmonary fibrosis. As to conditions: patients with IPF; cited from earlier work.
In data set [3] the test system is progressive pulmonary fibrosis. Particulars: patients with PPF, versus placebo, 52-week study period; cited from earlier work.

On to `CCCN(C)C(=O)OCc1c(-c2ccc(O[C@H]3CCC[C@H](C(=O)O)C3)c(C)n2)nnn1C` [Form A], for which, in data set [1], the hygroscopicity result is “non-hygroscopicity”. Regarding `COC(=O)c1ccc2c(c1)NC(=O)/C2=C(\Nc1ccc(N(C)C(=O)CN2CCN(C)CC2)cc1)c1ccccc1` [nintedanib], the “decline in lung function” value in data set [2] was “significantly reduce the decline in lung function”. In addition, the “progression of lung fibrosis (annual rate of decline in FVC)” value in data set [3] is reported as “slower progression of lung fibrosis”. `Cc1ccc(=O)n(-c2ccccc2)c1` [pirfenidone]: the “decline in lung function” value in data set [2] is recorded as “significantly reduce the decline in lung function”.
